Patent US20140335115A1 (priority 2013, published 2014)

Assays:
Format in all cases: cell-based
[1] = test system: monkeypoxvirus
[2] = test system: cowpoxvirus
[3] = test system: vaccinia virus

Measured: prevention of spread of virus to Jurkat T cells

O=C(NN1C(=O)[C@@H]2[C@@H]3C=C[C@@H]([C@H]4C[C@@H]34)[C@@H]2C1=O)c1ccc(C(F)(F)F)cc1 [ST246]
~90%: [1] | [2] | [3]
